The first experiment has as its target T1, hKCNQ2/3 (Homo sapiens, UniProt O43525+O43526). The experiment is described as follows: Fluorescence assay using a voltage sensitive dye (BMG). The class given is cell-based. The conditions noted are these: CHO-K1 cells expressing KCNQ2/3. On the procedure: 11. Biological Data 12. Fluorescence Assay Using a Voltage Sensitive Dye
Human CHO-K1 cells expressing KCNQ2/3 channels are cultivated adherently at 37° C., 5% CO2 and 95% humidity in cell culture bottles (e.g. 80 cm^2 TC flasks, Nunc) with MEM Alpha Medium (1×, liquid, Invitrogen, #22571), 10% fetal calf serum (FCS) (Invitrogen, #10270-106, heat-inactivated) and the necessary selection antibiotics.
Before being sown out for the measurements, the cells are washed with a 1×DPBS buffer without Ca^2+/Mg^2+ (e.g. Invitrogen, #14190-094) and detached from the bottom of the culture vessel by means of Accutase (PAA Laboratories, #L11-007) (incubation with Accutase for 15 min at 37° C.). The cell count then present is determined using a CASY™ cell counter (TCC model, Schärfe System) in order subsequently to apply 20,000 cells/well/100 μl of the described nutrient medium to 96-well measuring plates of the Corning™ CellBIND™ type (Flat Clear Bottom Black Polystyrene Microplates, #3340). Incubation is then carried out for one hour at room temperature, without gassing or adjusting the humidity, followed by incubation for 24 hours at 37° C., 5% CO2 and 95% humidity.
The voltage-sensitive fluorescent dye from the Membrane Potential Assay Kit (Red™ Bulk format part R8123 for FLIPR, Molecular Devices™) is prepared by dissolving the contents of a vessel Membrane Potential Assay Kit Red Component A in 200 ml of extracellular buffer (ES buffer, 120 mM NaCl, 1 mM KCl, 10 mM HEPES, 2 mM CaCl2, 2 mM MgCl2, 10 mM glucose; pH 7.4). After removal of the nutrient medium, the cells are washed with 200 μl of ES buffer, then covered with a layer of 100 μl of the dye solution prepared above and incubated for 45 min at room temperature with the exclusion of light.
The fluorescence measurements are carried out with a BMG Labtech FLUOstar™ or BMG Labtech POLARstar™ instrument (525 nm excitation, 560 nm emission, Bottom Read mode). After incubation of the dye, […] of the test substances in the desired concentrations, or 50 μl of ES buffer for control purposes, are introduced into separate cavities of the measuring plate and incubated for 30 min at room temperature while being shielded from light. The fluorescence intensity of the dye is then measured for 5 min and the fluorescence value F1 of each well is thus determined at a given, constant time. 15 μl of a […] KCl solution ([…]) are then added to each well. The change in fluorescence is subsequently measured until all the relevant measured values have been obtained (mainly 5-30 min). At a given time after KCl application, a fluorescence value F2 is determined, in this case at the time of the fluorescence peak.
For calculation, the fluorescence intensity F2 is compared with the fluorescence intensity F1, and the agonistic activity of the target compound on the potassium channel is determined therefrom. F2 and F1 are calculated as follows:
[formula] In order to determine whether a substance has an agonistic effect,
[formula] for example, can be compared with
[formula] determined by adding to the reaction batch only the buffer solution instead of the substance to be tested, determining the value F1K of the fluorescence intensity, adding the potassium ions as described above and measuring a value F2K of the fluorescence intensity. Then F2K and F1K are calculated as follows: […]
A substance has an agonistic activity on the potassium channel when
[formula] is greater than
[formula] Independently of the comparison of
[formula] it is also possible to conclude that a target compound has agonistic activity if an increase in
[formula] is to be observed as the dosage of the target compound increases. Calculations of EC50 and IC50 values are carried out with the aid of “Prism 4” software (GraphPad Software™). The following compounds were tested by way of example: […]
For the molecule `O=C(CN1CCn2cccc2C1c1ccc2c(c1)OCCO2)NCc1cccc(C(F)(F)F)c1` (centres unmarked) [Example 8, 2-[1-(2,3-dihydro-benzo[1,4]dioxin-6-yl)-3,4-dihydro-1H-pyrrolo[1,2-a]pyrazin-2-yl]-N-(3-trifluoromethyl-benzyl)-acetamide], it took 2.97 µM to reach a half-maximal effect (EC50).
Same read-out and setting: to `CC(NC(=O)CCC(=O)N1CCn2cccc2C1c1ccccc1)c1cccc(C(F)(F)F)c1` (centres unmarked) [Example 81, 4-oxo-4-(1-phenyl-3,4-dihydropyrrolo[1,2-a]pyrazin-2(1H)-yl)-N-(1-(3-(trifluoromethyl)phenyl)ethyl)butanamide] belongs 2.95 µM.
On the same count and under the same terms, with `CC(NC(=O)CCC(=O)N1CCn2cccc2C1c1cccs1)c1cccc(C(F)(F)F)c1` (centres unmarked) [Example 82, 4-oxo-4-(1-(thiophen-2-yl)-3,4-dihydropyrrolo[1,2-a]pyrazin-2(1H)-yl)-N-(1-(3-(trifluoromethyl)phenyl)ethyl)butanamide] the figure was 5.28 µM; with `O=C(CCC(=O)N1CCn2cccc2C1c1ccccc1)NCc1cccs1` (centres unmarked) [Example 83, 4-oxo-4-(1-phenyl-3,4-dihydropyrrolo[1,2-a]pyrazin-2(1H)-yl)-N-(thiophen-2-ylmethyl)butanamide], 14.3 µM.
For `CC1c2cccn2CCN1C(=O)CCC(=O)NCc1cccc(C(F)(F)F)c1` (centres unmarked) [Example 86, 4-(1-methyl-3,4-dihydropyrrolo[1,2-a]pyrazin-2(1H)-yl-4-oxo-N-(3-trifluoromethyl)benzyl)butanamide], the midpoint of the response, the EC50, lay at 11.6 µM.
The same measure, in the same setting: to `O=C(CC(=O)N1CCn2cccc2C1c1ccccc1)NCc1cccc(C(F)(F)F)c1` (centres unmarked) [Example 89, 3-oxo-3-(1-phenyl-3,4-dihydropyrrolo[1,2-a]pyrazin-2(1H)-yl)-N-(3-(trifluoromethyl)benzyl)propanamide] belongs 4.55 µM.

The same experiment, now with this note: agonistic activity at 10 μM, CHO-K1 cells expressing KCNQ2/3; read-out: BMG AG %@10 μm.
For `O=C(CCC(=O)N1CCn2cccc2C1c1ccc(Cl)cc1)NCc1cccc(C(F)(F)F)c1` (centres unmarked) [Example 1, 4-[1-(4-chloro-phenyl)-3,4-dihydro-1H-pyrrolo[1,2-a]pyrazin-2-yl]-4-oxo-N-(3-trifluoromethyl-benzyl)-butyramide], the activation at 10 µM came to 69%.
On to `Cc1cccc(C2c3cccn3CCN2C(=O)CCC(=O)NCc2cccc(C(F)(F)F)c2)c1` (centres unmarked) [Example 5, 4-oxo-4-(1-m-tolyl-3,4-dihydro-1H-pyrrolo[1,2-a]pyrazin-2-yl)-N-(3-trifluoromethyl-benzyl)-butyramide], for which the activation at 10 µM amounted to 28%.
Take `COc1cccc(C2c3cccn3CCN2CC(=O)NCc2cccc(C(F)(F)F)c2)c1` (centres unmarked) [Example 20, 2-(1-(3-methoxyphenyl)-3,4-dihydropyrrolo[1,2-a]pyrazin-2(1H)-yl)-N-(3-(trifluoromethyl)benzyl)acetamide]: the activation at 10 µM is 21%.
Same read-out and setting: with `Cc1ccc(C2c3cccn3CCN2CC(=O)NCc2cccc(C(F)(F)F)c2)cc1` (centres unmarked) [Example 37, 2-(1-p-tolyl-3,4-dihydro-1H-pyrrolo[1,2-a]pyrazin-2-yl)-N-(3-trifluoromethyl-benzyl)-acetamide] the figure was 24%; with `CC(NC(=O)CCC(=O)N1CCn2cccc2C1Cc1ccccc1)c1cccc(C(F)(F)F)c1` (centres unmarked) [Example 80, 4-(1-benzyl-3,4-dihydropyrrolo[1,2-a]pyrazin-2(1H)-yl)-4-oxo-N-(1-(3-(trifluoromethyl)phenyl)ethyl)butanamide], 10%; with `CC1c2cccn2CCN1C(=O)CCC(=O)NCc1ccc(F)cc1` (centres unmarked) [Example 85, N-(4-fluorobenzyl)-4-(1-methyl-3,4-dihydropyrrolo[1,2-a]pyrazin-2(1H)-yl)-4-oxobutanamide], 0%.
Still for that read-out and setting: with `O=C(CCc1cccc(C(F)(F)F)c1)NCC(=O)N1CCn2cccc2C1c1ccccc1` (centres unmarked) [Example 87] the figure was 3%; with `O=C(CCCc1ccccc1)NCC(=O)N1CCn2cccc2C1c1ccccc1` (centres unmarked) [Example 88, N-(2-oxo-2-(1-phenyl-3,4-dihydropyrrolo[1,2-a]pyrazin-2(1H)-yl)ethyl)-4-phenylbutanamide], 5%.
Regarding `O=C(CC(=O)N1CCn2cccc2C1c1ccccc1)Nc1cccc(C(F)(F)F)c1` (centres unmarked) [Example 90], the activation at 10 µM was -20%.
Still for that read-out and setting: with `O=C(CN1CCn2cccc2C1c1ccccc1)NCc1cccc(C(F)(F)F)c1` (centres unmarked) [Example 91, 2-(1-phenyl-3,4-dihydropyrrolo[1,2-a]pyrazin-2(1H)-yl)-N-(3-(trifluoromethyl)benzyl)acetamide] the figure was 9%; with `O=C(/C=C/c1ccccc1F)NCC(=O)N1CCn2cccc2C1c1ccccc1` (centres unmarked) [Example 92, (E)-3-(2-fluorophenyl)-N-(2-oxo-2-(1-phenyl-3,4-dihydropyrrolo[1,2-a]pyrazin-2(1H)-yl)ethyl)acrylamide], 7%.

In the next experiment the target is T1, hKCNQ2/3. The experiment is described as follows: Voltage clamp (patch-clamp) measurements on stably transfected hKCNQ2/3 CHO-K1 cell line. The class given is cell-based. The conditions noted are these: potential −40 mV, relative to retigabine (RG = 1). On the procedure:
Voltage Clamp Measurements
In order to confirm a KCNQ2/3-agonistic action of the substances electrophysiologically, patch-clamp measurements (Hamill et al., 1981) were carried out in voltage clamp mode on a stably transfected hKCNQ2/3 CHO-K1 cell line. After formation of the gigaseal, the cells were first clamped at a holding potential of −60 mV. Thereafter, depolarizing voltage jumps were applied up to a potential of +20 mV (increment: 20 mV, duration: 1 second) in order to confirm the functional expression of KCNQ2/3-typical currents. The testing of the substances was carried out at a potential of −40 mV. The increase in current induced by retigabine (10 at −40 mV was first recorded as a positive control on each cell. After complete washing out of the retigabine effect (duration: 80 s), the test substance was applied. • See: Hamill O P, Marty A, Neher E, Sakmann B, Sigworth F J.: Improved patch-clamp techniques for high-resolution current recording from cells and cell-free membrane patches. Pflugers Arch. 1981 August; 391(2):85-100.
(The patch-clamp technique gives a direct electrical read-out from membranes.)
For `CC(NC(=O)CCC(=O)N1CCn2cccc2C1c1ccccc1)c1cccc(C(F)(F)F)c1` (centres unmarked) [Example 81, 4-oxo-4-(1-phenyl-3,4-dihydropyrrolo[1,2-a]pyrazin-2(1H)-yl)-N-(1-(3-(trifluoromethyl)phenyl)ethyl)butanamide], the “MAN rel eff @ 10 μM [RG = 1]” value is 0.25.
With `CC(NC(=O)CCC(=O)N1CCn2cccc2C1c1cccs1)c1cccc(C(F)(F)F)c1` (centres unmarked) [Example 82, 4-oxo-4-(1-(thiophen-2-yl)-3,4-dihydropyrrolo[1,2-a]pyrazin-2(1H)-yl)-N-(1-(3-(trifluoromethyl)phenyl)ethyl)butanamide], the “MAN rel eff @ 10 μM [RG = 1]” value is listed as 0.11.
On the same count and under the same terms, with `O=C(CC(=O)N1CCn2cccc2C1c1ccccc1)Nc1cccc(C(F)(F)F)c1` (centres unmarked) [Example 90] the figure was −0.46.

The EC50 is the concentration at which the effect is half-maximal. Higher therefore signals weaker potency.

Source of the values: US8017772B2, “Substituted tetrahydropyrrolopyrazine compounds and the use thereof in the treatment and/or inhibition of pain” (Gruenenthal GmbH, priority 2006, dated 2011).
